Experimental data taken from ChEMBL document CHEMBL1201862, “PubChem BioAssay data set” (2004).
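Briefly, cells in 96-well plates were exposed to five compound concentrations for 48 h, and endpoints were estimated by linear interpolation. Here, GI50 denotes the concentration required for 50% inhibition of growth.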 Activity calls are given as the source filed them. No stated cut-off is given here; in the data, active = GI50 up to about 1.1 µM and inactive = higher.

Columns and labels:
Test in all cases: NCI-60 cell line screen, 48 h
SW-620 = tested on: SW-620
MDA-MB-435 = tested on: MDA-MB-435
A549 = tested on: A549
OVCAR-3 = tested on: OVCAR-3
SF-295 = tested on: SF-295
NCI-H460 = tested on: NCI-H460
HCT-116 = tested on: HCT-116
DU-145 = tested on: DU-145
CCRF-CEM = tested on: CCRF-CEM
UACC-257 = tested on: UACC-257
HOP-62 = tested on: HOP-62
MOLT-4 = tested on: MOLT-4
CAKI-1 = tested on: CAKI-1
HCT-15 = tested on: HCT-15
TK-10 = tested on: TK-10
SR = tested on: SR
SK-MEL-28 = tested on: SK-MEL-28
KM12 = tested on: KM12
OVCAR-8 = tested on: OVCAR-8
HL-60 = tested on: HL-60

SMILES	GI50 (SW-620)	GI50 (MDA-MB-435)	GI50 (A549)	GI50 (OVCAR-3)	GI50 (SF-295)	GI50 (NCI-H460)	GI50 (HCT-116)	GI50 (DU-145)	GI50 (CCRF-CEM)	GI50 (UACC-257)	GI50 (HOP-62)	GI50 (MOLT-4)	GI50 (CAKI-1)	GI50 (HCT-15) [µM]	GI50 (TK-10)	GI50 (SR)	GI50 (SK-MEL-28)	GI50 (KM12)	GI50 (OVCAR-8)	GI50 (HL-60)
Cc1cccc(/C=N/NC(=S)Nc2ccc(Cl)cc2)n1	0.46 µM (active)	0.205 µM (active)	1.93 µM (inactive)	0.968 µM (active)	2.02 µM (inactive)	0.635 µM (active)	1.47 µM (inactive)	3.31 µM (inactive)	0.695 µM (active)	3.13 µM (inactive)	1.08 µM (active)	1.17 µM (inactive)	1.7 µM (inactive)	0.519	11.6 µM (inactive)	0.778 µM (active)	3.39 µM (inactive)	0.977 µM (active)	3.74 µM (inactive)	
Clc1nc(Nc2nc3ccccc3[nH]2)nc(Cl)c1Cc1ccccc1	> 100 µM (inactive)	> 100 µM (inactive)	> 100 µM (inactive)		> 100 µM (inactive)	89.1 µM (inactive)	> 100 µM (inactive)	> 100 µM (inactive)	63.5 µM (inactive)	> 100 µM (inactive)		> 100 µM (inactive)	> 100 µM (inactive)	40.2	> 100 µM (inactive)	> 100 µM (inactive)	> 100 µM (inactive)	81.7 µM (inactive)	> 100 µM (inactive)	> 100 µM (inactive)
CCCc1cc(O)c2c(C)c3[nH]c4ccc(Cl)cc4c3c(C)c2n1	1.63 µM (inactive)	1.6 µM (inactive)	2.24 µM (inactive)		2.36 µM (inactive)	1.97 µM (inactive)	1.63 µM (inactive)	6.3 µM (inactive)	2.07 µM (inactive)	2 µM (inactive)	2.2 µM (inactive)	2.81 µM (inactive)	2 µM (inactive)	1.69	1.94 µM (inactive)	1.88 µM (inactive)	1.46 µM (inactive)	3.48 µM (inactive)	2.55 µM (inactive)	1.67 µM (inactive)
CNC(=O)N(CCC#N)CCN(CCN(C(=O)NC)c1ccccc1)C(=O)NC	> 100 µM (inactive)	> 100 µM (inactive)	> 100 µM (inactive)	> 100 µM (inactive)	> 100 µM (inactive)	> 100 µM (inactive)	> 100 µM (inactive)	> 100 µM (inactive)	> 100 µM (inactive)	> 100 µM (inactive)	> 100 µM (inactive)	> 100 µM (inactive)	> 100 µM (inactive)	> 100	> 100 µM (inactive)	> 100 µM (inactive)	> 100 µM (inactive)	> 100 µM (inactive)	> 100 µM (inactive)	
Cc1c(Cc2ccccc2)n(C(C)OCCN(OC(=O)Oc2ccccc2)C(=O)Oc2ccccc2)c(=O)[nH]c1=O (stereo unspecified)	20.7 µM (inactive)	23.4 µM (inactive)	25.2 µM (inactive)	19 µM (inactive)	16 µM (inactive)	17.8 µM (inactive)	20.5 µM (inactive)	28.5 µM (inactive)	12.4 µM (inactive)	15 µM (inactive)	18.1 µM (inactive)	14.5 µM (inactive)	18.7 µM (inactive)	14.6		28.6 µM (inactive)	21.3 µM (inactive)	15.8 µM (inactive)	16.9 µM (inactive)	
Nc1nc(NCC2(CO)CC2)cc(=O)[nH]1	> 100 µM (inactive)	> 100 µM (inactive)	> 100 µM (inactive)	> 100 µM (inactive)	> 100 µM (inactive)	> 100 µM (inactive)	> 100 µM (inactive)	> 100 µM (inactive)	> 100 µM (inactive)	> 100 µM (inactive)	> 100 µM (inactive)	> 100 µM (inactive)	> 100 µM (inactive)	> 100		> 100 µM (inactive)	> 100 µM (inactive)	> 100 µM (inactive)	> 100 µM (inactive)	> 100 µM (inactive)
COc1ccc(/C=C2\CCCCCC2=O)cc1	> 100 µM (inactive)	> 100 µM (inactive)	> 100 µM (inactive)	> 100 µM (inactive)	> 100 µM (inactive)	> 100 µM (inactive)	> 100 µM (inactive)	> 100 µM (inactive)	> 100 µM (inactive)	> 100 µM (inactive)	> 100 µM (inactive)	> 100 µM (inactive)	> 100 µM (inactive)	> 100	> 100 µM (inactive)	> 100 µM (inactive)	> 100 µM (inactive)	> 100 µM (inactive)	> 100 µM (inactive)	
